PubChem BioAssay (NCI)
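Interpolation was linear, between the two tested concentrations surrounding the appropriate level; five concentrations were tested over 48 hours in 96-well plates. Abbreviation: GI50, concentration required for 50% inhibition of growth. TGI is the concentration that stops growth completely.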

Columns and labels:
Experiment in all cases: NCI-60 cell line screen, 48 h
RPMI-8226 leukemia = tested on: RPMI-8226 leukemia
PC-3 prostate = tested on: PC-3 prostate
SK-MEL-2 melanoma = tested on: SK-MEL-2 melanoma
HL-60(TB) leukemia = tested on: HL-60(TB) leukemia
SK-MEL-28 melanoma = tested on: SK-MEL-28 melanoma
SNB-75 CNS = tested on: SNB-75 CNS
HS 578T breast = tested on: HS 578T breast
SK-OV-3 ovarian = tested on: SK-OV-3 ovarian
OVCAR-4 ovarian = tested on: OVCAR-4 ovarian
UACC-257 melanoma = tested on: UACC-257 melanoma
HT29 colon = tested on: HT29 colon
M14 melanoma = tested on: M14 melanoma
A498 renal = tested on: A498 renal
CCRF-CEM leukemia = tested on: CCRF-CEM leukemia
SK-MEL-5 melanoma = tested on: SK-MEL-5 melanoma
UO-31 renal = tested on: UO-31 renal
SF-295 CNS = tested on: SF-295 CNS
KM12 colon = tested on: KM12 colon
MCF7 breast = tested on: MCF7 breast
HOP-92 NSCLC = tested on: HOP-92 NSCLC
SW-620 colon = tested on: SW-620 colon
IGROV1 ovarian = tested on: IGROV1 ovarian
HOP-62 NSCLC = tested on: HOP-62 NSCLC
HCC-2998 colon = tested on: HCC-2998 colon
SN12C renal = tested on: SN12C renal
ACHN renal = tested on: ACHN renal
MALME-3M melanoma = tested on: MALME-3M melanoma
SF-539 CNS = tested on: SF-539 CNS
786-0 renal = tested on: 786-0 renal
EKVX NSCLC = tested on: EKVX NSCLC
HCT-116 colon = tested on: HCT-116 colon
NCI-H23 lung = tested on: NCI-H23 lung
UACC-62 melanoma = tested on: UACC-62 melanoma
MDA-MB-435 = tested on: MDA-MB-435
NCI-H522 lung = tested on: NCI-H522 lung
A549 NSCLC = tested on: A549 NSCLC
SNB-19 CNS = tested on: SNB-19 CNS
OVCAR-8 ovarian = tested on: OVCAR-8 ovarian
RXF 393 renal = tested on: RXF 393 renal
OVCAR-5 ovarian = tested on: OVCAR-5 ovarian
MOLT-4 leukemia = tested on: MOLT-4 leukemia
SR leukemia = tested on: SR leukemia
MDA-N = tested on: MDA-N
COLO 205 colon = tested on: COLO 205 colon
SF-268 CNS = tested on: SF-268 CNS
TK-10 renal = tested on: TK-10 renal
LOX IMVI melanoma = tested on: LOX IMVI melanoma
CAKI-1 renal = tested on: CAKI-1 renal
NCI-H460 lung = tested on: NCI-H460 lung
DU-145 prostate = tested on: DU-145 prostate
HCT-15 colon = tested on: HCT-15 colon
OVCAR-3 ovarian = tested on: OVCAR-3 ovarian
MDA-MB-231 breast = tested on: MDA-MB-231 breast
U251 CNS = tested on: U251 CNS
NCI/ADR-RES ovarian = tested on: NCI/ADR-RES ovarian
T-47D breast = tested on: T-47D breast

Molecule `C[C@]1(O)CC[C@H]2[C@@H]3CCc4cc(O)ccc4[C@H]3CC[C@@]21C` has a TGI (RPMI-8226 leukemia) of 4.81 µM, a TGI (PC-3 prostate) of over 100 µM and a TGI (SK-MEL-2 melanoma) of over 100 µM. It also gave a TGI (HL-60(TB) leukemia) of 3.49 µM, a TGI (SK-MEL-28 melanoma) of over 100 µM and a TGI (SNB-75 CNS) of over 100 µM. For the same molecule, the TGI (HS 578T breast) was 4.98 µM, the TGI (SK-OV-3 ovarian) was over 100 µM and the TGI (OVCAR-4 ovarian) was over 100 µM. For the same molecule, the TGI (UACC-257 melanoma) was 77.1 µM, the TGI (HT29 colon) was over 100 µM and the TGI (M14 melanoma) was 62.4 µM. For the same molecule, the TGI (A498 renal) was 9.61 µM, the TGI (CCRF-CEM leukemia) was 80.1 µM and the TGI (SK-MEL-5 melanoma) was 11.7 µM. For the same molecule, the TGI (UO-31 renal) was 61.2 µM, the TGI (SF-295 CNS) was 13 µM and the TGI (KM12 colon) was 12.1 µM. The TGI (MCF7 breast) was over 100 µM, the TGI (HOP-92 NSCLC) was 67.8 µM and the TGI (SW-620 colon) was over 100 µM. The TGI (IGROV1 ovarian) was 27.8 µM, the GI50 (HOP-62 NSCLC) was 18.4 µM and the TGI (HOP-62 NSCLC) was over 100 µM. For the same molecule, the TGI (HCC-2998 colon) was 0.937 µM, the GI50 (SN12C renal) was 10.2 µM and the TGI (SN12C renal) was over 100 µM. The TGI (ACHN renal) was over 100 µM, the TGI (MALME-3M melanoma) was 0.948 µM and the TGI (SF-539 CNS) was 2.27 µM. The TGI (786-0 renal) was over 100 µM, the TGI (EKVX NSCLC) was 9.08 µM and the GI50 (HCT-116 colon) was 0.703 µM. The TGI (HCT-116 colon) was over 100 µM, the TGI (NCI-H23 lung) was over 100 µM and the GI50 (UACC-62 melanoma) was 1.48 µM. It also gave a TGI (UACC-62 melanoma) of 37.5 µM, a TGI (MDA-MB-435) of 0.761 µM and a TGI (NCI-H522 lung) of 5.08 µM. The TGI (A549 NSCLC) was 77.6 µM, the TGI (SNB-19 CNS) was over 100 µM and the TGI (OVCAR-8 ovarian) was 64.8 µM. For the same molecule, the TGI (RXF 393 renal) was 4.05 µM, the TGI (OVCAR-5 ovarian) was over 100 µM and the TGI (MOLT-4 leukemia) was over 100 µM. The TGI (SR leukemia) was 0.668 µM, the TGI (MDA-N) was 0.651 µM and the TGI (COLO 205 colon) was over 100 µM. For the same molecule, the TGI (SF-268 CNS) was 68.3 µM, the TGI (TK-10 renal) was 7.51 µM and the TGI (LOX IMVI melanoma) was 72.5 µM. It also gave a TGI (CAKI-1 renal) of over 100 µM, a TGI (NCI-H460 lung) of over 100 µM and a GI50 (DU-145 prostate) of 1.98 µM. The TGI (DU-145 prostate) was 8.25 µM, the TGI (HCT-15 colon) was over 100 µM and the GI50 (OVCAR-3 ovarian) was 0.663 µM. It also gave a TGI (OVCAR-3 ovarian) of 42.9 µM, a TGI (MDA-MB-231 breast) of 88 µM and a TGI (U251 CNS) of over 100 µM. The TGI (NCI/ADR-RES ovarian) was over 100 µM and the TGI (T-47D breast) was over 100 µM.
